In ChEMBL document CHEMBL4130624, “Optimization of 1,4-Oxazine β-Secretase 1 (BACE1) Inhibitors Toward a Clinical Candidate” (J Med Chem, 2018):
pIC50: −log10 of the molar value. Converted amounts (≈) assume the structure as drawn. The source made the active and inactive calls. The calls are words filed in the database; no cut-off is given here.

Experiments:
[1] = Tmax in Swiss mouse at 10 mg/kg, po administered as bolus dose by LC-MS/MS analysis; type: ADME, organism-based; conditions: in vivo
[2] = AUC (0 to infinity) in Beagle dog at 10 mg/kg, po administered as bolus dose by LC-MS/MS analysis; type: ADME, organism-based, Canis lupus familiaris; set-up: dose 10 mg/kg, time infinity, route oral; conditions: in vivo
[3] = Toxicity in male beagle dog at 20 to 250 mg/kg/day, po qd for 1 month; type: organism-based, Canis lupus familiaris; conditions: in vivo
[4] = tested on: TK6; assay: Genotoxicity in human TK6 cells at 80 ug/ml after 24 hrs in absence of rat liver S9 fraction by micronucleus assay; type: toxicity, cell-based; conditions: tk6, 24 h
[5] = tested on: Canis familiaris; assay: Toxicity in Beagle dog assessed as induction of behavioural changes at 0.63 to 20 mg/kg, po qd for 1 day; type: organism-based, Canis lupus familiaris; conditions: in vivo, 24 h
[6] = Drug metabolism in mouse liver microsomes at 1 uM after 15 mins in presence of NADPH by HPLC-MS/MS analysis; type: ADME, microsome; conditions: read-out: Drug metabolism
[7] = Ratio of drug level in lung to plasma of Sprague-Dawley rat at 10 mg/kg, po; type: ADME, organism-based
[8] = tested on: Rattus norvegicus; assay: Toxicity in Sprague-Dawley rat assessed as effect on body weight at 225 mg/kg/day, po administered via gavage for 1 month; type: organism-based; conditions: in vivo
[9] = biological target: Cytochrome P450 2C19 (Homo sapiens, UniProt P33261); assay: Reversible inhibition of recombinant human CYP2C19 by fluorescence-based assay; type: ADME
[10] = Volume of distribution at steady state in Swiss mouse at 2.5 mg/kg, iv administered as bolus dose by LC-MS/MS analysis; type: ADME, organism-based; conditions: in vivo, read-out: Vdss
[11] = tested on: Canis familiaris; assay: Toxicity in Beagle dog assessed as induction of appearance changes at 0.63 to 20 mg/kg, po qd for 1 day; type: organism-based, Canis lupus familiaris; conditions: in vivo, 24 h
[12] = biological target: Beta-secretase 1 (Homo sapiens, UniProt P56817); assay: Inhibition of BACE1 in human SKNBE2 cells transfected with APP695 protein assessed as reduction in amyloid beta (1 to 42) levels after 18 hrs by sandwich alphalisa assay; type: cell-based
[13] = tested on: Canis familiaris; assay: Toxicity in Beagle dog assessed as induction of behavioural changes at 0.63 to 20 mg/kg, po qd for 6 days; type: organism-based, Canis lupus familiaris; conditions: in vivo, 144 h
[14] = biological target: Cytochrome P450 3A4 (Homo sapiens, UniProt P08684); assay: Time dependent inhibition of recombinant human CYP3A4 by fluorescence-based assay; type: ADME; conditions: recombinant enzyme
[15] = Cmax in male Beagle dog at 70 mg/kg, po measured after 1 month repeated dosing by LC-MS/MS analysis; conditions: in vivo
[16] = biological target: Cytochrome P450 1A2 (Homo sapiens, UniProt P05177); assay: Reversible inhibition of recombinant human CYP1A2 by fluorescence-based assay; type: ADME
[17] = Half life in Swiss mouse at 2.5 mg/kg, iv administered as bolus dose by LC-MS/MS analysis; type: ADME, organism-based; conditions: in vivo
[18] = tested on: Canis familiaris; assay: Toxicity in Beagle dog assessed as drug tolerability at 0.63 to 20 mg/kg, po qd for 1 day; type: organism-based, Canis lupus familiaris; conditions: in vivo, 24 h
[19] = Oral bioavailability in Swiss mouse at 10 mg/kg administered as bolus dose by LC-MS/MS analysis; type: ADME, organism-based; conditions: in vivo
[20] = Oral bioavailability in Beagle dog at 10 mg/kg administered as bolus dose by LC-MS/MS analysis; type: ADME, organism-based, Canis lupus familiaris; conditions: in vivo
[21] = tested on: TK6; assay: Genotoxicity in human TK6 cells at 188 ug/ml after 4 hrs in presence of rat liver S9 fraction by micronucleus assay; type: toxicity, cell-based; conditions: s9, 4 h
[22] = Fraction unbound in human plasma at 5 uM after 4.5 hrs by HPLC-MS/MS method based rapid equilibrium dialysis; type: ADME, cell-free
[23] = tested on: Rattus norvegicus; assay: Toxicity in Sprague-Dawley rat assessed as drug tolerability at 25 to 75 mg/kg/day, po measured after 1 month repeated dosing; type: organism-based; conditions: in vivo
[24] = (§1) Safety index, ratio of NOAEL for cardiotoxicity in anesthetized guinea pigs assessed as free drug level causing QTcB prolongation dosed up to 10 mg/kg, iv administered over a period of 5 min at 15 mins interval by ECG analysis to EC50 for Antialzheimer activity in po dosed Beagle dog assessed as reduction in amyloid beta (1 to 40) levels measured after 1 hr post dose by ELISA; type: toxicity, organism-based; conditions: guinea pig, in vivo
[25] = tested on: Salmonella typhimurium; assay: Mutagenicity in Salmonella typhimurium TAmix up to 500 ug/ml in absence of rat liver S9 fraction by Ames 2 assay; type: toxicity, organism-based; conditions: salmonella enterica subsp. enterica serovar typhimurium
[26] = tested on: Canis familiaris; assay: Antialzheimer activity in po dosed Beagle dog assessed as reduction in CSF amyloid beta (1 to 42) levels measured after 49 hrs post dose by MesoScale electrochemiluminescence; conditions: Canis lupus familiaris
[27] = Toxicity in Sprague-Dawley rat administered daily via oral gavage for 1 month; type: organism-based; conditions: in vivo
[28] = biological target: Mu-type opioid receptor (Homo sapiens) (UniProt P35372); assay: Inhibition of recombinant human mu-type opioid receptor at 10 uM after 5 mins
[29] = tested on: Canis familiaris; assay: Toxicity in male beagle dog assessed as induction of pigmentation at 20 to 250 mg/kg/day, po qd for 1 month; type: organism-based, Canis lupus familiaris; conditions: in vivo
[30] = tested on: Canis familiaris; assay: Toxicity in Beagle dog assessed as drug tolerability up to 20 mg/kg, po; type: organism-based, Canis lupus familiaris; conditions: in vivo
[31] = tested on: Rattus norvegicus; assay: Toxicity in female Sprague-Dawley rat assessed as increase in formation of foamy macrophages in lungs at 75 mg/kg/day, po administered via gavage for 1 month; type: organism-based; conditions: in vivo
[32] = as §1, with “total” for “free”; type: toxicity, organism-based; conditions: guinea pig, in vivo
[33] = Cmax in Swiss mouse at 10 mg/kg, po administered as bolus dose by LC-MS/MS analysis; type: ADME, organism-based; set-up: dose 10 mg/kg, route oral; conditions: in vivo
[34] = AUC (0 to 24 hrs) in female Sprague-Dawley rat at 75 mg/kg, po measured after 1 month repeated dosing by LC-MS/MS analysis; type: ADME, organism-based; set-up: time < 24 hr, dose 75 mg/kg, route oral; conditions: in vivo
[35] = tested on: HepG2; assay: Cytotoxicity against human HepG2 cells assessed as effect on cell health indicators after 72 hrs by automated fluorescence microscopy based high content screening based assay; type: ADME; conditions: hepg2, 72 h
[36] = tested on: Canis familiaris; assay: Toxicity in beagle dog assessed as induction of tremors at 70 to 250 mg/kg/day, po qd for 1 week; type: organism-based, Canis lupus familiaris; conditions: in vivo, 168 h
[37] = Fraction unbound in rat plasma at 5 uM after 4.5 hrs by HPLC-MS/MS method based rapid equilibrium dialysis; type: ADME, cell-free
[38] = Tmax in Beagle dog at 10 mg/kg, po administered as bolus dose by LC-MS/MS analysis; type: ADME, organism-based, Canis lupus familiaris; conditions: in vivo
[39] = tested on: Salmonella typhimurium; assay: Mutagenicity in Salmonella typhimurium TAmix up to 500 ug/ml in presence of rat liver S9 fraction by Ames 2 assay; type: toxicity, organism-based; conditions: salmonella enterica subsp. enterica serovar typhimurium
[40] = tested on: Canis familiaris; assay: Antialzheimer activity in po dosed Beagle dog assessed as reduction in amyloid beta (1 to 40) levels measured after 1 hr post dose by ELISA; type: functional, organism-based, Canis lupus familiaris
[41] = tested on: Canis familiaris; assay: Toxicity in male beagle dog assessed as reduction in RBC parameters at 250 mg/kg/day, po qd for 1 month; type: organism-based, Canis lupus familiaris; conditions: in vivo

Beta-secretase 1, sequence (P56817 whole entry): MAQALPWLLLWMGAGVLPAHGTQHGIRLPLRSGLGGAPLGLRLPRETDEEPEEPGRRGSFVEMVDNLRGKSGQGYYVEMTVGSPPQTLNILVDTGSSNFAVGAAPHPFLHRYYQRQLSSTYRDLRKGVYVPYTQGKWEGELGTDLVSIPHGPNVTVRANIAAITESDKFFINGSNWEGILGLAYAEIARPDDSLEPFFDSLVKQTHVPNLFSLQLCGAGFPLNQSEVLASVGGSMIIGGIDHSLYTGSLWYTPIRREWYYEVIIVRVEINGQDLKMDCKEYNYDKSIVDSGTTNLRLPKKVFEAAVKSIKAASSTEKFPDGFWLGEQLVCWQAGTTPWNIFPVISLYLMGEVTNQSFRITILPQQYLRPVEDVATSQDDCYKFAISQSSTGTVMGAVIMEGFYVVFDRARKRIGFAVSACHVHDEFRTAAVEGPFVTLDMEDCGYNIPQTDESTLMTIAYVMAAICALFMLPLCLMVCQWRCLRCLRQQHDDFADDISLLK
Mu-type opioid receptor (Homo sapiens), sequence (P35372 whole entry): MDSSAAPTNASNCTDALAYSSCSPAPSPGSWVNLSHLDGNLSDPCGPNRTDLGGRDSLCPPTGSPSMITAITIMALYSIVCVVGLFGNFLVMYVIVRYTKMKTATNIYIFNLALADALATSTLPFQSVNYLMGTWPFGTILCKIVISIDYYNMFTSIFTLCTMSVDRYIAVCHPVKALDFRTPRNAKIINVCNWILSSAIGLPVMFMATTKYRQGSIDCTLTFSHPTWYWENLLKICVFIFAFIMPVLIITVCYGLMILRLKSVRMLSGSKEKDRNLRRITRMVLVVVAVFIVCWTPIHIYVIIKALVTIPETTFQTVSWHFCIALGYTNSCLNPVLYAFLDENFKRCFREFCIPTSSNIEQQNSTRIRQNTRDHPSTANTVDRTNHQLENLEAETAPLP
Cytochrome P450 1A2, sequence (P05177 whole entry): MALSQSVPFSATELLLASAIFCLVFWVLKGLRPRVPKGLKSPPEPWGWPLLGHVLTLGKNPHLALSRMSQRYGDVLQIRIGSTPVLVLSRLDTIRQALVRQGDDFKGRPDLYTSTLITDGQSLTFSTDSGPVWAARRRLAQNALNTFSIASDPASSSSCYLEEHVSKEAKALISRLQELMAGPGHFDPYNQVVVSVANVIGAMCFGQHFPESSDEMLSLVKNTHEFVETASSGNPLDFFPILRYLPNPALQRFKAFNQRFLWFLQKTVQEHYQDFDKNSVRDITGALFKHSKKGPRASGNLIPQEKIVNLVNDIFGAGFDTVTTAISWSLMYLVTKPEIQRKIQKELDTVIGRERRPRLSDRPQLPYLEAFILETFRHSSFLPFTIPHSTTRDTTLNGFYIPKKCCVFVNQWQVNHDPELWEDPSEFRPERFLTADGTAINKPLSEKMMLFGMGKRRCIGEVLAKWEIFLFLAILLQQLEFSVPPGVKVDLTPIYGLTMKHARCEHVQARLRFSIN
Cytochrome P450 3A4, sequence (P08684 whole entry): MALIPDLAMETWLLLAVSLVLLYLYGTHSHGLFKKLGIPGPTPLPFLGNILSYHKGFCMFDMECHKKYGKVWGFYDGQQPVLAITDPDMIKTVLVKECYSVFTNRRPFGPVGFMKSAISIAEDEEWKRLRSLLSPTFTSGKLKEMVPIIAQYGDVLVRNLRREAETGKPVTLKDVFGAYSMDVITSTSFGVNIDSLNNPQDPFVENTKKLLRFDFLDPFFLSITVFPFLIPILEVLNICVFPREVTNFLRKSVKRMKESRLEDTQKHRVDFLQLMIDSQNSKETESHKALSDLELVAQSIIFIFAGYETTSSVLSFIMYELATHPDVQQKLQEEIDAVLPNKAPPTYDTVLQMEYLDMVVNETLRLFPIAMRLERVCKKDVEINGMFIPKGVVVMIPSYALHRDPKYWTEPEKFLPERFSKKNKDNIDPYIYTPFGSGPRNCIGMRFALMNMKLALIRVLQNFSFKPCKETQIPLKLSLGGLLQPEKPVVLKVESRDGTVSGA
Cytochrome P450 2C19, sequence (P33261 whole entry): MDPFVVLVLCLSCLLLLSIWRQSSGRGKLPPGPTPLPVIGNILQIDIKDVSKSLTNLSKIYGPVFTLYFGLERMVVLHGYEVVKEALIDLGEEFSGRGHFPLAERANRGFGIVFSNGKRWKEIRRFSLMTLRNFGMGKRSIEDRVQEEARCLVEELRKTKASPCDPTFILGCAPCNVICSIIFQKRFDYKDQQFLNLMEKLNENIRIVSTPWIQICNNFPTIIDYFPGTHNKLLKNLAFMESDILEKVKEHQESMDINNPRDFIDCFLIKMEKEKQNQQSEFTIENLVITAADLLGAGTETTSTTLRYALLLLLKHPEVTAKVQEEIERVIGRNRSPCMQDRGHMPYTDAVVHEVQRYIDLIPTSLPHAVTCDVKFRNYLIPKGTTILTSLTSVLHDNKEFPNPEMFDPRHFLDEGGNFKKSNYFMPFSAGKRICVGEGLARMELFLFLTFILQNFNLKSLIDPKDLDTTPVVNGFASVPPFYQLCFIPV

`C[C@]1(c2cc(NC(=O)c3ccc(C#N)cn3)ccc2F)N=C(N)CO[C@H]1C(F)(F)F` showed a Tmax [1] of 1 h, an AUC(0-inf) [2] of 15400 ng·h/mL and an NOAEL at 1 month [3] of 70 mg/kg/day. For the same molecule, the Activity [4] was “Non-Toxic”, the Activity [5] was “Non-Toxic” and the metabolised at 0.25 h, 1 µM [6] was 13%. For the same molecule, the Kp [7] was 169, the Activity [8] was “Non-Toxic” and the pIC50 [9] was < 4.52. For the same molecule, the Vd [10] was 7.6 L/kg, the Activity [11] was “Non-Toxic” and the pIC50 [12] was 8.22. The Activity [13] was “Non-Toxic”, the TDI [14] was “Not Active” and the Cmax at 1 month [15] was 1970 ng/mL. The pIC50 [16] was < 4.52, the half-life [17] was 1.4 h and the Activity [18] was “Non-Toxic”. The bioavailability [19] was 45%, the bioavailability [20] was 71% and the Activity [21] was “Non-Toxic”. The fraction unbound at 4.5 h, 5 µM [22] was 0.36, the Activity [23] was “Non-Toxic” and the selectivity ratio [24] was 71. The Activity [25] was “Non-Toxic”, the Activity [26] was “Active” and the NOAEL at 1 month [27] was 75 mg/kg. For the same molecule, the inhibition [28] was 91%, the Activity [29] was “Non-Toxic” and the Activity [30] was “Non-Toxic”. The Activity [31] was “Toxic”, the selectivity ratio [32] was 50 and the Cmax [33] was 333 nM. The AUC at 24 h [34] was 38800 ng·h/mL, the MTC [35] was 31.5 µM and the Activity [36] was “Toxic”. For the same molecule, the fraction unbound at 4.5 h, 5 µM [37] was 0.26, the Tmax [38] was 2 h and the Activity [39] was “Non-Toxic”. For the same molecule, the fEC50 [40] was 0.065 µM, the Activity ([40]; Canis lupus familiaris) was “Dose-dependent effect” and the EC50 ([40]; Canis lupus familiaris, Beagle, 1 h) was 0.105 µg/mL (≈ 0.249 µM). The Activity [41] was “Toxic”.
